Source: patent US12516019B2, “Amphoteric compounds” (Eastman Chemical Company, priority 2015, dated 2026)

What was measured:
Type in all cases: physicochemical
[1] = Water solubility: heated to a clear solution, cooled to ambient temperature; settings: ambient temperature after heating to a clear solution
Experimental: To a vial was added 5.00 g of 3-((lauryloxycarbonylpropyl)-dimethylammonio)propanesulfonate and 10.00 g of water. The mixture was heated to 100° C. for an hour to afford a clear solution. The mixture was then allowed to cool to ambient temperature, at which point it was still homogeneous with no precipitate or gel.
To a vial was added 5.00 g of 3-((lauryloxycarbonylmethyl)-dimethylammonio)propanesulfonate and 45.00 g of water. The mixture was heated to 100° C. for an hour to afford a clear solution. The mixture was then allowed to cool to ambient temperature resulting in a white solid. The solid was recovered by filtration and dried in a vacuum oven at 55° C. in vacuo with a nitrogen sweep overnight to afford 4.58 g of 3-((lauryloxycarbonylmethyl)-dimethylammonio)propanesulfonate.
To a vial was added 10.00 g of 3-((4-laurylamino-4-oxobutyl)-dimethylammonio)propanesulfonate and 20.00 g of water. The mixture was heated to 100° C. for an hour to afford a clear solution. The mixture was then allowed to cool to ambient temperature, at which point it was still homogeneous with no precipitate or gel.
The solubility of 3-((2-laurylamino-2-oxoethyl)dimethylammonio)-propanesulfonate was determined by mixing 5.00 g of material with 45.00 g of water and heating to 85° C. for 1 h to afford a clear 10 wt % solution. The material was allowed to cool to ambient temperature to afford a precipitate. The precipitate was filtered, and the resulting solid was dried in vacuo at 50° C. with a nitrogen sweep for 3 days to afford 4.54 g of recovered 3-((2-laurylamino-2-oxoethyl)dimethylammonio)propanesulfonate.

[2] = Foam height test, Standard Test Method for Foaming Properties of Surface-Active Agents (ASTM 1173-07); settings: 49° C.; for Foam height at time t = 0: t = 0 min; for Foam height at time t = 1: t = 1 min; for Foam height at time t = 2: t = 2 min; for Foam height at time t = 3: t = 3 min; for Foam height at time t = 4: t = 4 min; for Foam height at time t = 5: t = 5 min
Text: The Standard Test Method for Foaming Properties of Surface-Active Agents (ASTM 1173-07) for 0.1 wt % and 1.0 wt % was used to determine the foaming properties of the amphoteric compounds of the formula 1 described herein. This method generates foam under low-agitation conditions and is generally used for moderate- and high-foam surfactants. This test gathers data on initial foam height and foam decay. Foam decay provides information on foam stability.
The apparatus for carrying out this test includes a jacketed column and a pipet. The jacketed column serves as a receiver, while the pipet delivers the surface-active solution.
Solutions of each surface-active agent to be measured were prepared in borosilicate glass jars a day ahead of time, using ambient temperature ingredients, and were slowly rolled overnight to homogenize. The solutions were then removed from the rollers and equilibrated in a constant temperature bath (49° C.+/−1° C.) for at least 1 hour before measurement. The solution of the amphoteric compound to be tested was added to the receiver (50 mL) and to the pipet (200 mL). The pipet was positioned above the receiver and opened. As the solution fell and made contact with the solution in the receiver, foam was generated. When the pipet was empty, the time was noted and an initial foam height was recorded. The foam height was recorded each minute for five minutes. Exact size specifications for the glassware can be found in ASTM 1173-07. The foam height results for each amphoteric compound 1 and representative standards are listed below in Tables 1 (0.1% concentration) and 2 (1% concentration).

[3] = Critical micelle concentration from surface tension (Wilhelmy plate, K100C Tensiometer); settings: deionized water, ambient temperature
Experimental: The critical micelle concentration (CMC) is an important characteristic of a surfactant, and the CMC values were determined for the amphoteric compounds of formula 1. The CMC is defined as the concentration at which micelle formation first begins, and for surface tension determination of CMC, is typically assigned as the concentration of the intersection of two straight lines through the data, where the first line is the linear portion of the initial decline in surface tension with increasing surfactant concentration, and the second is the line of constant surface tension.
The critical micelle concentration was determined from plots of surface tension as a function of the logarithm of active surfactant concentration. Surface tension was measured via the Wilhelmy plate technique. In this method, the downward force of a rigorously clean plate probe that just contacts the liquid surface of the test sample is measured, and the surface tension is calculated from knowledge of the contact angle the liquid makes with the probe surface and the length of the probe plate.
A K100C Tensiometer (Kruss GmbH) was used to measure surface tension of solutions in a glass sample vessel. All measurements were made under ambient temperature conditions.
The tensiometer was equipped with a computer-controlled microdispensing and aspirating system to automate surfactant concentration adjustments of the test solution while maintaining constant solution volume between successive measurements. A roughened platinum plate probe was used. Cleanliness of probe, sample vessel, and microdispensing system was verified after cleaning between samples by measuring the surface tension of pure deionized water run through the system as a control.
100 mL of the 1 mg/L surfactant solution was added to the clean sample vessel and placed in the instrument. The plate probe was rinsed with deionized water and flame treated to combust off residual organic impurities, then mounted in position in the tensiometer. The experiment was initiated and run through the LabDesk version 3.2.2 (Kruss GmbH) software.
The surface tension measurements were run sequentially (and automatically) from most dilute to most concentrated by incrementally injecting known volume aliquots of the 10,000 mg/L surfactant solution into the sample, homogenizing the sample after injection by stirring for 30 seconds via a magnetic stir bar in the solution, and then aspirating out equal volume that was added to the sample vessel to keep the total sample volume constant for each measurement.
The sample vessel was then automatically moved into measurement position, and the surface tension measurement was made and recorded. This sequence was repeated until all concentrations had been measured.
The active surfactant concentration range spanned from 1 mg/L to 5000 mg/L over 50 concentration increments, equally spaced on a logarithmic scale over the full range of concentrations measured.
The sample at each concentration was measured 10 times, and the average of the 10 measures was plotted against the logarithm of the surfactant concentration.
After completing the full range of concentrations, the software provided best-fit lines to estimate CMC, and these regression lines were manually adjusted as needed to give the broadest range of linear behavior for each line.

SMILES | solubility in water [1] | Foam height at time t = 0 ([2]; 1 g/L (0.1 weight %)) [mm] | Foam height at time t = 1 ([2]; 1 g/L (0.1 weight %)) [mm] | Foam height at time t = 2 ([2]; 1 g/L (0.1 weight %)) [mm] | Foam height at time t = 3 ([2]; 1 g/L (0.1 weight %)) [mm] | Foam height at time t = 4 ([2]; 1 g/L (0.1 weight %)) [mm] | Foam height at time t = 5 ([2]; 1 g/L (0.1 weight %)) [mm] | Foam height at time t = 0 ([2]; 10 g/L (1.0 weight %)) [mm] | Foam height at time t = 1 ([2]; 10 g/L (1.0 weight %)) [mm] | Foam height at time t = 2 ([2]; 10 g/L (1.0 weight %)) [mm] | Foam height at time t = 3 ([2]; 10 g/L (1.0 weight %)) [mm] | Foam height at time t = 4 ([2]; 10 g/L (1.0 weight %)) [mm] | Foam height at time t = 5 ([2]; 10 g/L (1.0 weight %)) [mm] | Critical micelle concentration (CMC) [3] [mg/L]
CCCCCCCCCCCCNC(=O)C[N+](C)(C)CCCS(=O)(=O)[O-] [Comparative Example 4, 3-((2-Laurylamino-2-oxoethyl)dimethylammonio)-propanesulfonate, reference compound] | 1.02 wt % |  |  |  |  |  |  |  |  |  |  |  |  | 
CCCCCCCCCCCCNC(=O)CCC[N+](C)(C)CCCS(=O)(=O)[O-] [Example 14, 3-((4-Laurylamino-4-oxobutyl)dimethylammonio)-propanesulfonate] | greater than or equal to 33 wt % | 143 | 133 | 123 | 108 | 95 | 75 | 157 | 145 | 137 | 129 | 122 | 116 | 133.9
CCCCCCCCCCCCOC(=O)CCC[N+](C)(C)CCCS(=O)(=O)[O-] [Example 5, 3-(3-(Lauryloxycarbonylpropyl)dimethylammonio)-propanesulfonate] | greater than or equal to 33 wt % | 157 | 154 | 151 | 149 | 147 | 146 | 170 | 166 | 161 | 158 | 154 | 152 | 53.9
CCCCCCCCCCCCOC(=O)C[N+](C)(C)CCCS(=O)(=O)[O-] [Comparative Example 2, 3-((Lauryloxycarbonylmethyl)dimethylammonio)-propanesulfonate, reference compound] | 0.92 wt % |  |  |  |  |  |  |  |  |  |  |  |  | 
